Literature values as cited in US6239177A, “Tranilast-containing preparation for external application and method of producing the same” (Lead Chemical Co., Ltd., priority 1996, dated 2001).
Where two headings read alike, the source gives them in different places.

Columns and labels:
[1] = system: keloid and hypertrophic scar; conditions: Ichikawa 1992; Suzawa 1992
[2] = system: carrageenan-induced granulation tissue; conditions: for drug concentration in the skin tissue: one hour after final administration, 60 min

solubility in dimethyl formamide, pyridine, dioxane, and acetone (dimethyl formamide, pyridine, dioxane, acetone): soluble
solubility in a kind of fatty acid and its ester, animal and vegetable oils and fats, terpene compounds, and alcohols (fatty acids/esters, oils and fats, terpenes, alcohols): can be solved to some extent
solubility in methanol, ethanol, ethyl acetate (methanol, ethanol, ethyl acetate): hardly soluble
solubility in water: extremely sparingly soluble
solubility in water (listed as Tranilast): sparingly soluble
drug concentration in the skin tissue ([2]; oral 50 mg/kg for consecutive 14 days): 4.2 ± 0.4 µg/g
drug concentration in the skin tissue ([2]; oral 100 mg/kg for consecutive 14 days): 10.3 ± 0.9 µg/g
drug concentration in the skin tissue ([2]; oral 200 mg/kg for consecutive 14 days): 23.17 ± 1.7 µg/g
Structure (SMILES): COc1ccc(C=CC(=O)Nc2ccccc2C(=O)O)cc1OC [tranilast, N-(3,4-dimethoxycinnamoyl)-anthranilic acid]
pharmaceutical effect on keloid and hypertrophic scar [1]: excellent pharmaceutical effect
inhibitory effect (carrageenan-induced granulation tissue) ([2]; oral 50, 100, and 200 mg/kg for consecutive 14 days): dose-dependent inhibitory effect was observed
